In US20240400986A1, “MEMBRANE BOUND COMPOSITIONS AND METHODS RELATING TO SAME” (FLAGSHIP PIONEERING INNOVATIONS VII, LLC, priority 2021, published 2024):
Read-outs that look alike come from different tables or passages of the source.

Columns and labels:
[1] = test system: neuronal cells; experiment: Gigasome-mediated extraction of APP-CTFs upon γ-secretase and proteasome inhibition (fixed plates, confocal); assay type: cell-based, human; conditions: γ-secretase inhibitor 5 μM, MG-132 0.1 μM, alone or combined; 24 h; compared to DMSO
Procedure: Cells were treated with the γ-secretase inhibitor L-685,458 at 5 μM, either alone or in combination with the proteasome inhibitor MG-132 at 0.1 μM. A vehicular control amount of DMSO was added to the media to comparatively study cargo signals within cells and gigasomes. Treatments were carried out in reduced serum-containing media (3% FBS) for 24 hours. Disease-related cargo presence within cells and in gigasomes was characterized and quantified by confocal microscopy analysis of 4% paraformaldehyde fixed cells, following (immuno)fluorescent labeling of cytosolic, nuclear and cargo-specific protein markers. In some experiments β-III tubulin and Alexa Fluor® 488 phalloidin were used to mark the cytosol and proximal plasma membrane, respectively. To detect APP-CTFs, an antibody against the C-terminus of APP (C-APP) was used (see Table 12). Non-specific labeling was blocked by incubation with 5% normal goat serum in PBS in the presence of 0.05% saponin, for 1 h at room temperature. Primary antibodies were incubated overnight at 4° C., followed by incubation with Alexa Fluor®-conjugated secondary antibodies for 1 hour at room temperature. Nuclei were counterstained with DAPI.
A range of 5-8 images per well were taken from replicate experiments to capture a final total range of 150-200 cells. […] The cellular cargo fluorescence intensity in the red channel was quantified by subtracting the background signal from each image, using the ImageJ built-in “subtract background” function with a default rolling ball radius of 50 pixel. The cargo signal (integrated density) in the red channel was measured and normalized to the number of nuclei counted in each field. […]
For particle analysis, the cytosolic and F-actin/membrane signals were merged into single RGB image, converted to grayscale and then thresholded to create a cellular mask of objects in the field of view, as calculated by the “Li” autothreshold algorithm. […] The quantity or distribution of objects obtained from the particle analysis was divided by the number of cells counted in each field to obtain a normalized quantity or distribution.

[2] = test system: neuronal cells; experiment: Gigasome-mediated extraction of stress granule-associated protein HuR (fixed plates, confocal); assay type: cell-based, human; conditions: 5 μM sodium arsenite, 0.2 μM MG-132, alone or combined, 24 h
Procedure: For this paradigm, cells were treated with a low sodium arsenite concentration of 5 μM either alone or in combination with the proteasome inhibitor MG-132 at 0.2 μM. A vehicular control amount of DMSO was added to the media to comparatively study cargo signals within cells and gigasomes. Treatments were carried out in reduced serum-containing media for 24 hours to mimic a chronic exposure to arsenite. The presence of the stress-granule-related cargo within cells and in gigasomes was characterized and quantified by confocal microscopy analysis of 4% paraformaldehyde. Non-specific labeling was blocked by incubation with 5% normal goat serum in PBS in the presence of 0.1% Triton X-100, for 2 h at room temperature, followed by immunolabeling with an antibody against the RNA-binding protein HuR (see Table 12) and incubation with Alexa Fluor® 568 secondary antibodies. Phalloidin Alexa Fluor® 488 was used to mark the proximal plasma membrane. Nuclei were counterstained with DAPI.
Images were captured using a Zeiss LSM 900 confocal microscope and a 40× objective. For analysis, 10×16-bit images per well were processed to obtain a final total range of 75-200 cells. Composite images were separated in the different channels. The background was subtracted from the red cargo-related channel, as described in Example 13a. The nuclear signal in the blue channel was thresholded using the “Yen” autothreshold algorithm. To measure the nuclear-to-cytosolic translocation of the stress-granule-related protein cargo upon treatment, firstly, the cargo-related nuclear signal was subtracted from the respective red channel image by creating a nuclear selection from the thresholded blue channel image, which was added to ImageJ Manager. The nuclear selection was then transferred to the background-subtracted red channel and the nuclear cargo signal was removed from the image leaving only the cytosolic signal. The cleared red channel image was thresholded using the “default” autothreshold algorithm for downstream particle analysis. To measure the cytosolic cargo signal, a cellular mask was then generated by thresholding the Green/F-actin channel using the “Li” autothreshold method. A cytosolic selection was created, added to ImageJ Manager, and transferred to the background subtracted, nuclear-cleared red channel image. The cytosolic cargo signal (integrated density) was measured and normalized to the number of nuclei counted in each field. Particle analysis was performed as described in Example 13a, using the thresholded green channel to identify particles of interest by filtering by area and circularity and re-directing to the blue and red channel for absence of nuclear signal and eventual presence of disease-related cargo, respectively. The quantity or distribution of objects obtained from the particle analysis was obtained as described in Example 13a.

[3] = test system: neuronal cell line derived from human neuroblastoma; experiment: Small molecule compound screen of gigasome production in neuronal monocultures; conditions: for Fold Change of Gigasomes Produced vs. DMSO / Number of Gigasomes Produced: neuronal cells, 24 hours
Source text: (§1) To quantify and characterize gigasome production using microscopy, while tracking cell viability/phenotype, a multi-readout system was developed that allowed simultaneous analysis of gigasomes harvested from cell culture media supernatants and respective gigasome producing cell viability. […] For the screening, a total of 99 compounds (TargetMol) were divided in 5 groups. Each group included an untreated condition, a vehicular DMSO control, and a known high-gigasome producing condition to comparatively study gigasome production rates. As a cell death control group, 500 nM Staurosporine was added to induce apoptosis. Cultures were incubated for 24 hours under gigasome inducing conditions at concentrations ranging between 10 nM and 10,000 nM. Before the end of the treatment, live neuronal cultures were imaged. The Zeiss ZEN Blue software was used to distribute imaging fields of view (positions) to create an unbiased imaging sample of a well. 5 images were taken using a Zeiss LSM 900 confocal microscope. […] The BioApps ZEN software package was used to perform cell nucleus segmentation and counting. After 24 hours, gigasomes were harvested from the cell culture media by gently removing from the top of each 96-well ⅔ of the total volume without disturbing the cell layer (containing the settled gigasomes) and by adding to each well the same amount of PBS. The wells were washed twice gently, and the gigasome-containing media/PBS wash was transferred into the well of a 384-well glass bottom plate. Cells remaining in the 96-well plates were assessed for viability using CellTiter-Glo (Promega).
(§2) For gigasome analysis in 384-well plates, the Zeiss ZEN Blue software was used to distribute positions to create an unbiased imaging sample of a well. 6 images per well were taken using a Zeiss LSM 900 confocal microscope.
(§3) A watershed binary segmentation step was performed to separate grouped objects. For each particle in the mask, characteristic parameters of the particle were calculated and saved.
(§4) Particles of interest were identified by thresholding by area and circularity. […] Circularity, defined by the formula 4pi(area/perimeter^2, was set to be between 0.8 and 1, where a value of 1.0 is a perfect circle, and a value of 0 is a line. Gigasomes were identified from the particles of interest by thresholding by mean nuclear signal. The nuclear signal threshold was set using a value equal to one fourth of a threshold value calculated by the Li auto-threshold algorithm applied to the distribution of all particles of interest. Particles of interest with nuclear signal below this value were considered “negative” for nuclear material and were identified as gigasomes. A sampling factor was calculated to extrapolate the total quantity of a type of object (particles, particles of interest, gigasomes) in the well. The sampling factor was the percentage of the well's area that was imaged. […] The normalized quantity or distribution of objects was described as a quantity or distribution of objects per 1000 cells.

[4] = test system: neuronal cell line derived from human neuroblastoma
[5] = test system: neuronal cell line derived from human neuroblastoma; conditions: neuronal cells, 24 hours
Source text: as §1, §2, §3, §4

[6] = test system: cardiomyocytic cell line derived from human ventricular heart tissue; experiment: Cell viability in cardiomyocyte compound screen (CellTiter-Glo); assay type: cell-based; conditions: Table 22, cardiomyocytes, 24 hours
Source text: Cells were stained with Hoechst 34580, CellTracker Green/CellMask Green Actin and MitoTracker Deep Red to detect nuclear material, cytoplasm/F-actin, and mitochondria, respectively, and cultured in poly-L-lysine-coated 96-well glass bottom plates at 15,800 cells/cm^2 and allowed to adhere overnight. For the screening, a total of 100 randomly organized compounds (TargetMol) were divided in 5 groups. Each group included an untreated condition, a vehicular DMSO control, and a known high-gigasome producing condition to comparatively study gigasome production rates. As a cell death control group, 500 nM Staurosporine was added to induce apoptosis. Cultures were incubated for 24 hours under gigasome inducing conditions at concentrations ranging between 10 nM and 10,000 nM. […] Cells remaining in the 96-well plates were assessed for viability using CellTiter-Glo (Promega).

[7] = test system: cardiomyocytic cell line derived from human ventricular heart tissue; experiment: Small molecule compound screen of gigasome production in cardiomyocytic monocultures; conditions: Table 22, cardiomyocytes, 24 hours;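 further: gigasomes shed into the culture medium were imaged by confocal microscopy and counted as round particles lacking nuclear signal, extrapolated to the whole well, fold change is relative to DMSO vehicle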
Procedure: For the screening, a total of 100 randomly organized compounds (TargetMol) were divided in 5 groups. Each group included an untreated condition, a vehicular DMSO control, and a known high-gigasome producing condition to comparatively study gigasome production rates. As a cell death control group, 500 nM Staurosporine was added to induce apoptosis. Cultures were incubated for 24 hours under gigasome inducing conditions at concentrations ranging between 10 nM and 10,000 nM. […] The Zeiss ZEN Blue software was used to distribute imaging fields of view (positions) to create an unbiased imaging sample of a well. 5 images were taken using a Zeiss LSM 900 confocal microscope. […] The BioApps ZEN software package was used to perform cell nucleus segmentation and counting. After 24 hours, gigasomes were harvested from the cell culture media by gently removing from the top of each 96-well ⅔ of the total volume without disturbing the cell layer (containing the settled gigasomes) and by adding to each well the same amount of PBS containing 0.5 mM EDTA. The wells were washed twice gently, and the gigasome-containing media/0.5 mM EDTA PBS wash was transferred into the well of a 384-well glass bottom plate. Cells remaining in the 96-well plates were assessed for viability using CellTiter-Glo (Promega).
For gigasome analysis in 384-well plates, the Zeiss ZEN Blue software was used to distribute positions to create an unbiased imaging sample of a well. 6 images per well were taken using a Zeiss LSM 900 confocal microscope. […] A watershed binary segmentation step was performed to separate grouped objects. For each particle in the mask, characteristic parameters of the particle were calculated and saved. […] Particles of interest were identified by thresholding by area and circularity. […] Circularity, defined by the formula 4pi(area/perimeter^2, was set to be between 0.8, where a value of 1.0 is a perfect circle, and a value of 0 is a line. Gigasomes were identified from the particles of interest by thresholding by mean nuclear signal. The nuclear signal threshold was set using a value equal to one quarter of a threshold value calculated by the Li auto-threshold algorithm applied to the distribution of all particles of interest. Particles of interest with nuclear signal below this value were considered “negative” for nuclear material and were identified as gigasomes. A sampling factor was calculated to extrapolate the total quantity of a type of object (particles, particles of interest, gigasomes) in the well. The sampling factor was the percentage of the well's area that was imaged. […] In some experiments, the number of cells in the cell cultures were estimated with a cell counter. […] The normalized quantity or distribution of objects was described as a quantity or distribution of objects per 1000 cells.

[8] = Homo sapiens, 24 h, read-out: Fold Change of Gigasomes Produced vs. DMSO
[9] = neuronal cells, dose 10 nM, 24 hours

Compound: CC(C)C[C@H](NC(=O)[C@H](Cc1ccccc1)C[C@@H](O)[C@H](Cc1ccccc1)NC(=O)OC(C)(C)C)C(=O)N[C@@H](Cc1ccccc1)C(N)=O [γ-secretase inhibitor, L-685,458]
- intracellular APP-CTF levels (C-APP immunoreactivity) [1]: increase

Compound: O=[As]O [sodium arsenite]
- HuR cytosolic signal ([2]; compared to DMSO (FIG. 7B)): increased
- gigasomes per 1000 cells ([2]; fixed plates (FIG. 7C)): 200 per 1000 cells

Compound: Cn1cncc1[C@@](N)(c1ccc(Cl)cc1)c1ccc2c(c1)c(-c1cccc(Cl)c1)cc(=O)n2C [Tipifarnib]
- fold induction at 0.01 µM [3, 8]: 0.75 to 1
- fold induction at 0.1 µM [3, 8]: 1.5 to 1.75
- fold induction at 1 µM [3, 8]: 1.75 to 2
- Viability ([4]; human, 24 h, 10 nM): >75%
- Viability ([4]; human, 24 h, 100 nM): >75%
- Viability ([4]; human, 24 h, 1000 nM): 50-75%
- Number of Gigasomes Produced ([5]; dose 10 nM): <35
- Number of Gigasomes Produced ([5]; dose 100 nM): 55-65
- Number of Gigasomes Produced ([5]; dose 1000 nM): 65-75

Compound: CO/C1=C\C(C)=C\[C@@H](C)[C@@H](O)[C@@H](C)C/C(C)=C/C=C/[C@H](OC)[C@@H]([C@@H](C)[C@@H](O)[C@H](C)[C@@]2(O)C[C@@H](O)[C@H](C)[C@@H](C(C)C)O2)OC1=O [Bafilomycin A1, reference compound]
- Fold Change of Gigasomes Produced vs. DMSO ([3]; dose 10 nM): 1.75-2.0
- Number of Gigasomes Produced ([3]; dose 10 nM): 85-95
- Fold Change of Gigasomes Produced vs. DMSO ([3]; dose 100 nM): 2.0-3.0
- Number of Gigasomes Produced ([3]; dose 100 nM): 105-115
- Fold Change of Gigasomes Produced vs. DMSO ([3]; dose 1000 nM): 2.0-3.0
- Number of Gigasomes Produced ([3]; dose 1000 nM): >115
- Fold Change of Gigasomes Produced vs. DMSO ([3]; dose 10000 nM): 3.0-4.0
- Number of Gigasomes Produced ([3]; dose 10000 nM): >115
- Viability ([6]; dose 100 nM): >75%
- Viability ([6]; dose 1000 nM): >75%
- Viability ([6]; dose 10000 nM): >75%
- Fold Change of Gigasomes Produced vs. DMSO ([7]; dose 100 nM): 1.5-1.75
- Number of Gigasomes Produced ([7]; dose 100 nM): 225-250
- Fold Change of Gigasomes Produced vs. DMSO ([7]; dose 1000 nM): 1.75-2.0
- Number of Gigasomes Produced ([7]; dose 1000 nM): 250-275
- Fold Change of Gigasomes Produced vs. DMSO ([7]; dose 10000 nM): 1.75-2.0
- Number of Gigasomes Produced ([7]; dose 10000 nM): 250-275
- Viability [4, 9]: >75%
- Viability ([4]; neuronal cells, dose 100 nM, 24 hours): 100%
- Viability ([4]; neuronal cells, dose 1000 nM, 24 hours): >75%
- Viability ([4]; neuronal cells, dose 10000 nM, 24 hours): >75%

Compound: C[C@H]1CCC/C=C/[C@@H]2C[C@H](O)C[C@H]2[C@H](O)/C=C/C(=O)O1 [Brefeldin A]
- Fold Change of Gigasomes Produced vs. DMSO ([3]; dose 10 nM): 1.5-1.75
- Number of Gigasomes Produced ([3]; dose 10 nM): 45-55
- Viability ([6]; dose 10 nM): >75%
- Fold Change of Gigasomes Produced vs. DMSO ([7]; dose 10 nM): 1.25-1.5
- Number of Gigasomes Produced ([7]; dose 10 nM): 250-275
- Viability [4, 9]: 100%
